Data as given in PubChem BioAssay (NCI).
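96-well plates; 48 h exposure; 5 concentrations. Endpoints by linear interpolation between flanking doses. Not reached: highest tested concentration assigned. TGI: total growth inhibition.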

Tests used:
Assay in all cases: inhibition of tumour cell growth, NCI panel, 48 h
UACC-62 melanoma = system: UACC-62 melanoma
COLO 205 colon = system: COLO 205 colon
NCI-H226 lung = system: NCI-H226 lung
SK-MEL-2 melanoma = system: SK-MEL-2 melanoma
A498 renal = system: A498 renal
HCT-116 colon = system: HCT-116 colon
EKVX NSCLC = system: EKVX NSCLC
M19-MEL melanoma = system: M19-MEL melanoma
T-47D breast = system: T-47D breast
A549 NSCLC = system: A549 NSCLC

Compound | TGI (UACC-62 melanoma) | TGI (COLO 205 colon) | TGI (NCI-H226 lung) | TGI (SK-MEL-2 melanoma) | TGI (A498 renal) | TGI (HCT-116 colon) | TGI (EKVX NSCLC) | TGI (M19-MEL melanoma) | TGI (T-47D breast) | TGI (A549 NSCLC)
O=C(O)/C=C/c1ccncc1 | > 100 µM | > 100 µM | > 100 µM | > 100 µM | > 100 µM | > 100 µM | > 100 µM | > 100 µM |  | 
Cc1ccc(NCCN(C)C)c2c(=O)c3cc(O)ccc3sc12 | 9.78 µM | 23.2 µM | 15.2 µM | 35.7 µM | 21.9 µM | 8.79 µM | 27.6 µM | 23.1 µM | 28.4 µM | 8.08 µM
CC(C)[C@@H]1NC(=O)[C@@H]2N=C(O[C@H]2C)[C@H](C(C)C)NC(=O)C2N=C1O[C@H]2C | > 100 µM | > 100 µM | > 100 µM | > 100 µM | > 100 µM | > 100 µM | > 100 µM |  | > 100 µM | > 100 µM
CC1CCCN1CCCOC(=O)c1ccc(OC2C=CCCC2)cc1 (centres undefined) | > 100 µM | 31.4 µM | 86.4 µM | > 100 µM | > 100 µM | 35.8 µM | > 100 µM |  | 34.4 µM | > 100 µM
Cn1c(=O)c2c(nc(N/N=C3/SCC(=O)N3Cc3ccccc3)n2C)n(C)c1=O | > 100 µM | > 100 µM | > 100 µM | > 100 µM | > 100 µM | > 100 µM | > 100 µM |  | > 100 µM | > 100 µM
CCCCCCCCCCCCC1N=C(N)NC2(CCCO2)C1C(=O)OC (centres undefined) | 14.8 µM | 10.9 µM | 36.9 µM | 20.9 µM | 47.7 µM | 7.32 µM | 36.6 µM |  | 27.7 µM | 30.9 µM
CC(C)=CCC/C(C)=C/C=C/C(C)=C/C1C[C@@]2(C(O)O1)[C@H](CCCO)/C(=C(/C)C=O)CC[C@]2(C)O (some centres undefined) |  | 13.4 µM | 40.9 µM | 34.6 µM |  | 37.9 µM | 25.1 µM | 32.4 µM |  | 25 µM
Cc1cc2occ(S(=O)(=O)NC(=O)Nc3ccc(Cl)cc3)c(=O)c2c(=O)o1 | > 100 µM | > 100 µM | > 100 µM | > 100 µM | > 100 µM | > 100 µM | > 100 µM |  | > 100 µM | > 100 µM
O=C1C=C/C(=C/[C@H]2SSC=C[C@]23C=CC(=O)C3)C1 | 58.7 µM | 53 µM | 29.2 µM | > 76.2 µM | 38.3 µM | 22 µM | 63.6 µM |  | > 100 µM | 63.2 µM
